Assays:
Vero E6 [1] = assay: drug sensitivity score (DSS) for viability; higher = more toxic; extreme values may be limits of the assay; conditions: 72 h
Caco-2 [2] = assay: as above; conditions: 72 h
U2OS [3] = assay: as above; conditions: 72 h
HepG2 [4] = assay: as above; conditions: 72 h
Calu-3 [5] = assay: as above; conditions: 72 h
Vero E6 [6] = assay: cell viability relative to DMSO; higher = less toxic; conditions: 72 h
Caco-2 [7] = assay: as above; conditions: 72 h
U2OS [8] = assay: as above; conditions: 72 h
HepG2 [9] = assay: as above; conditions: 72 h
Calu-3 [10] = assay: as above; conditions: 72 h
Vero E6 [11] = assay: relative viability EC50 (midpoint between 100% and the lowest measured viability); higher = less toxic; conditions: 72 h
Caco-2 [12] = assay: as above; conditions: 72 h
U2OS [13] = assay: as above; conditions: 72 h
HepG2 [14] = assay: as above; conditions: 72 h
Calu-3 [15] = assay: as above; conditions: 72 h
[16] = tested on: A549-ACE2 infected with SARS-CoV-2; assay: morphology score (similarity to uninfected cells); higher = more like uninfected cells; conditions: 24 h
A549-ACE2 = assay: drug-induced phospholipidosis relative to tamoxifen; higher = more phospholipidosis
[17] = tested on: A549-ACE2 infected with SARS-CoV-2; assay: cell count relative to DMSO; higher = less toxic; conditions: 24 h
[18] = tested on: A549-ACE2 infected with SARS-CoV-2; assay: SARS-CoV-2 infection rate relative to DMSO; higher = more infection; conditions: 24 h

COc1cc(N)c(Cl)cc1C(=O)NC1CN2CCC1CC2 (stereo not drawn) [zacopride]
Conditions	drug sensitivity score	relative viability EC50 [µM]
Caco-2 [2]	0	–
Caco-2 [12]	–	> 10
Calu-3 [5]	0	–
Calu-3 [15]	–	> 10
HepG2 [4]	0	–
HepG2 [14]	–	> 10
U2OS [3]	0	–
U2OS [13]	–	> 10
Vero E6 [1]	0	–
Vero E6 [11]	–	> 10

cell viability [%]
Conditions	Caco-2 [7]	Calu-3 [10]	HepG2 [9]	U2OS [8]	Vero E6 [6]
1 nM	101	96.9	107	92.5	98.9
10 nM	97.6	100	99.5	96.3	92.8
100 nM	97.6	97	102	96.7	97.9
1000 nM	95.7	85	100	98.3	97.4
10000 nM	110	95.3	109	92.2	106

NC(=O)C[C@H](N)C(=O)O [L-asparagine]
Conditions	drug sensitivity score	relative viability EC50 [µM]
Caco-2 [2]	0	–
Caco-2 [12]	–	> 10
Calu-3 [5]	0	–
Calu-3 [15]	–	> 10
HepG2 [4]	0	–
HepG2 [14]	–	> 10
U2OS [3]	0	–
U2OS [13]	–	> 10
Vero E6 [1]	0.1	–
Vero E6 [11]	–	> 10

cell viability [%]
Conditions	Caco-2 [7]	Calu-3 [10]	HepG2 [9]	U2OS [8]	Vero E6 [6]
1 nM	103	95.2	92.7	96.5	102
10 nM	104	95.6	116	95.4	112
100 nM	92.1	93.1	92.3	98.6	99.2
1000 nM	106	96.1	105	98.7	101
10000 nM	105	98	93.7	102	86.8

C[S+]([O-])CCCCN=C=S (stereo not drawn) [sulforaphane]
Conditions	drug sensitivity score	relative viability EC50 [µM]
Caco-2 [2]	2.5	–
Calu-3 [5]	0	–
Calu-3 [15]	–	> 10
HepG2 [4]	4.1	–
U2OS [3]	1.1	–
U2OS [13]	–	> 10
Vero E6 [1]	0	–
Vero E6 [11]	–	> 10

Conditions	SARS-CoV-2 infection rate, [18] [%]	cell count, [17] [%]	cell viability, Caco-2 [7] [%]	cell viability, Calu-3 [10] [%]	cell viability, HepG2 [9] [%]	cell viability, U2OS [8] [%]	cell viability, Vero E6 [6] [%]	morphology score, [16]
1 nM	–	–	92.1	91	90.5	100	103	–
10 nM	–	–	107	91	89.7	104	108	–
100 nM	–	–	104	96	90.6	97.7	104	–
0.3 µM	95	104	–	–	–	–	–	0.21
1000 nM	–	–	91.3	108	79.8	97.9	94.6	–
3 µM	95	99	–	–	–	–	–	-0.05
10000 nM	–	–	70.9	97.9	72.3	77.4	90.2	–
10 µM	79	85	–	–	–	–	–	0.33
30 µM	18	109	–	–	–	–	–	0.82

drug-induced phospholipidosis [%], A549-ACE2
Conditions	0.3 µM	0.833333 µM	3.33333 µM	6.66667 µM	10 µM	30 µM
24 h	1.81	-7.24	-2.29	1.54	3.49	22.7
48 h	1.78	-7.01	-5.48	-4.04	-0.65	15.9
72 h	-0.306	-6.99	-5.48	-5.9	-2.75	7.99

c1ccc(-c2nc(CN3CCN(c4ncccn4)CC3)c[nH]2)cc1 [NGD-94-1]
Conditions	drug sensitivity score	relative viability EC50 [µM]
Caco-2 [2]	0	–
Caco-2 [12]	–	> 10
Calu-3 [5]	0	–
Calu-3 [15]	–	> 10
HepG2 [4]	0	–
HepG2 [14]	–	> 10
U2OS [3]	0	–
U2OS [13]	–	> 10
Vero E6 [1]	0	–
Vero E6 [11]	–	> 10

cell viability [%]
Conditions	Caco-2 [7]	Calu-3 [10]	HepG2 [9]	U2OS [8]	Vero E6 [6]
1 nM	99.7	79.7	98.2	100	93.2
10 nM	106	93.8	97.3	95.5	97.5
100 nM	91.9	85.5	94.1	98.4	91.5
1000 nM	102	95.7	101	92.5	92.9
10000 nM	111	108	105	109	105

Cc1coc2c1C(=O)C(=O)c1c-2ccc2c(C)cccc12 [tanshinone-I]
Conditions	drug sensitivity score	relative viability EC50 [µM]
Caco-2 [2]	0.7	–
Caco-2 [12]	–	> 10
Calu-3 [5]	0	–
Calu-3 [15]	–	> 10
HepG2 [4]	0	–
HepG2 [14]	–	> 10
U2OS [3]	0	–
U2OS [13]	–	> 10
Vero E6 [1]	0	–
Vero E6 [11]	–	> 10

cell viability [%]
Conditions	Caco-2 [7]	Calu-3 [10]	HepG2 [9]	U2OS [8]	Vero E6 [6]
1 nM	93.1	93.8	91	97.8	91.9
10 nM	97.4	91.7	104	97.8	94.9
100 nM	104	104	89.4	103	90.7
1000 nM	90.7	110	111	93.9	96.5
10000 nM	86.2	100	105	95.2	104

CCC(C/C=C/c1ccccc1)(c1ccccc1)N(C)CC1CC1 (stereo not drawn) [igmesine]
Conditions	drug sensitivity score	relative viability EC50 [µM]
Caco-2 [2]	0	–
Caco-2 [12]	–	> 10
Calu-3 [5]	0	–
Calu-3 [15]	–	> 10
HepG2 [4]	0	–
HepG2 [14]	–	> 10
U2OS [3]	0	–
U2OS [13]	–	> 10
Vero E6 [1]	0	–
Vero E6 [11]	–	> 10

cell viability [%]
Conditions	Caco-2 [7]	Calu-3 [10]	HepG2 [9]	U2OS [8]	Vero E6 [6]
1 nM	95.4	99	102	94.7	98.8
10 nM	97	104	105	99	97.7
100 nM	95.2	96.8	101	100	94.2
1000 nM	102	102	102	101	98.1
10000 nM	103	97.8	96.8	102	107
